Values after ≈ are worked out from the molar mass of the structure shown.
Tests used:
C. spp. = assay: Sensitivity of fungi to taurolidine, liquid medium; assay type: cell-based
C. tropicalis = assay: Sensitivity of fungi to taurolidine, liquid medium; assay type: cell-based; details: Candida tropicalis
C. albicans (Wilton) = assay: Sensitivity of fungi to taurolidine, solid medium; assay type: cell-based; details: Candida albicans
Candida albicans = assay: Antifungal activity; assay type: cell-based; details: the exception in the text summary of Table 1
Mucor spp. (heavy inoc.) = assay: Sensitivity of fungi to taurolidine, liquid medium; assay type: cell-based
Aspergillus fumigatus = assay: Sensitivity of fungi to taurolidine, liquid medium; assay type: cell-based
Aspergillus fumigatus I = assay: Sensitivity of fungi to taurolidine, solid medium; assay type: cell-based
Epidermophyton floccosum = assay: Sensitivity of fungi to taurolidine, solid medium; assay type: cell-based
Mucor spp. (light inoc.) = assay: Sensitivity of fungi to taurolidine, liquid medium; assay type: cell-based
C. albicans (Has. A) [1] = assay: Sensitivity of fungi to taurolidine, solid medium; assay type: cell-based; details: Candida albicans
[2] = Stability in the solid state; assay type: physicochemical; details: stored at ambient conditions
[3] = Solubility in aqueous solutions and organic solvents; assay type: physicochemical
Trichophyton rubrum = assay: Sensitivity of fungi to taurolidine, liquid medium; assay type: cell-based
Rhizopus spp. = assay: Sensitivity of fungi to taurolidine, solid medium; assay type: cell-based
Cryptococcus neoformans = assay: Sensitivity of fungi to taurolidine, solid medium; assay type: cell-based
C. albicans (I) = assay: Sensitivity of fungi to taurolidine, solid medium; assay type: cell-based; details: Candida albicans
[4] = Apparent partition coefficient between octanol and water; assay type: physicochemical; details: water buffered at pH 7.2
C. albicans (Has. A) [5] = assay: Sensitivity of fungi to taurolidine, liquid medium; assay type: cell-based; details: Candida albicans
Sporotrichum schenkii = assay: Sensitivity of fungi to taurolidine, solid medium; assay type: cell-based
C. albicans (Jones) [6] = assay: Sensitivity of fungi to taurolidine, solid medium; assay type: cell-based; details: Candida albicans
[7] = test system: Aspergillus fumigatus III; assay: Sensitivity of fungi to taurolidine, solid medium; assay type: cell-based
Mucor spp. (Lane) = assay: Sensitivity of fungi to taurolidine, solid medium; assay type: cell-based
[8] = test system: Trichophyton mentagrophytes; assay: Sensitivity of fungi to taurolidine, solid medium; assay type: cell-based
[9] = pH of saturated solution in deionized water; assay type: physicochemical
[10] = systemic doses exceeding 40 g/day and cumulative doses up to and exceeding 300 g; cited from earlier work
bacteria = assay: Antibacterial activity; assay type: cell-based; details: antifungal activity stated approximately equivalent to it
C. albicans (Jones) [11] = assay: Sensitivity of fungi to taurolidine, liquid medium; assay type: cell-based; details: Candida albicans

With `O=S1(=O)CCN(CN2CCS(=O)(=O)NC2)CN1` [Taurolidine, 4,4′-methylenebis(tetrahydro-1,2,4-thiadiazine)1,1,1′,1′,-tetraoxide] the MIC (C. spp.) was 625 µg/mL (≈ 2200 µM), the MIC (C. tropicalis) was 300 µg/mL (≈ 1050 µM) and the MIC (C. albicans (Wilton)) was over 5000 µg/mL. The antifungal activity (Candida albicans) was over 5 mg/mL, the MIC (Mucor spp. (heavy inoc.)) was 625 µg/mL (≈ 2200 µM) and the MIC (Aspergillus fumigatus) was 300 µg/mL (≈ 1050 µM). It also gave an MIC (Aspergillus fumigatus I) of 625 µg/mL (≈ 2200 µM), an MIC (Epidermophyton floccosum) of under 300 µg/mL and an MIC (Mucor spp. (light inoc.)) of 625 µg/mL (≈ 2200 µM). The MIC (C. albicans (Has. A) [1]) was over 5000 µg/mL, the “stability in the solid state” value [2] was “acceptable stability” and the solubility ([3]; CHCl3) was “insoluble”. The solubility ([3]; Dilute HCl) was “soluble”, the solubility ([3]; Dilute NaOH) was “soluble” and the solubility ([3]; EtOH) was “sparingly soluble”. It also gave a solubility ([3]; Water, 20° C.) of 1% at 20 °C, an MIC (Trichophyton rubrum) of 300 µg/mL (≈ 1050 µM) and an MIC (Rhizopus spp.) of 625 µg/mL (≈ 2200 µM). The MIC (Cryptococcus neoformans) was under 300 µg/mL, the MIC (C. albicans (I)) was over 5000 µg/mL and the “apparent partition coefficient between octanol and water” value [4] was “approximately 0.13”. It also gave an MIC (C. albicans (Has. A) [5]) of 2500 µg/mL (≈ 8790 µM), an MIC (Sporotrichum schenkii) of 625 µg/mL (≈ 2200 µM) and an MIC (C. albicans (Jones) [6]) of over 5000 µg/mL. For the same compound, the MIC [7] was 625 µg/mL (≈ 2200 µM), the MIC (Mucor spp. (Lane)) was 625 µg/mL (≈ 2200 µM) and the MIC [8] was under 300 µg/mL. For the same compound, the “pH of a saturated solution” value [9] was 7.4, the safety and tolerability [10] was “safe and well tolerated” and the antibacterial activity (bacteria) was 0.3 to 0.6 mg/mL. It also gave an MIC (C. albicans (Jones) [11]) of 5000 µg/mL (≈ 17600 µM).

From patent US20020103187A1, “Compositions and methods for treating superficial fungal infections” (priority 1999, published 2002)
